In patent US9113629B2, “4-amino-6-(4-substituted-phenyl)-picolinates and 6-amino-2-(4-substituted-phenyl)-pyrimidine-4-carboxylates and their use as herbicides” (DOW AGROSCIENCES LLC, priority 2013, dated 2015):

System: Key Broadleaf Weed and Crop Species
Assay: Post-emergent Test II herbicidal activity (Table 5)
Format: in vivo
Details: post-emergence, 336 h; ABUTH: velvetleaf (Abutilon theophrasti); 70 g ai/ha; post-emergent; 14 days after application; read-out: Visual Growth Reduction (%) 14 Days After Application ABUTH
Method in brief: (§1)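 Foliar application at 187 L/ha to greenhouse-grown seedlings (first or second true leaf); subirrigation thereafter. Visual 0–100% injury at 14 d relative to untreated plants.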

SMILES	pest or weed control at 70 g/ha
COc1c(N)nc(-c2cc(F)c(Br)cc2F)nc1C(=O)O [Compound 11]	95 to 100%

Same assay, conditions: post-emergence, 336 h; ABUTH: velvetleaf (Abutilon theophrasti); 140 g ai/ha; post-emergent; 14 days after application; read-out: Visual Growth Reduction (%) 14 Days After Application ABUTH

SMILES	pest or weed control at 140 g/ha
COc1c(N)nc(-c2cc(F)c(Br)cc2F)nc1C(=O)O [Compound 11]	95 to 100%

Same assay, conditions: post-emergence, 336 h; AMARE: redroot pigweed (Amaranthus retroflexus); 70 g ai/ha; post-emergent; 14 days after application; read-out: Visual Growth Reduction (%) 14 Days After Application AMARE

SMILES	pest or weed control at 70 g/ha
COc1c(N)nc(-c2cc(F)c(Br)cc2F)nc1C(=O)O [Compound 11]	95 to 100%

Same assay, conditions: post-emergence, 336 h; AMARE: redroot pigweed (Amaranthus retroflexus); 140 g ai/ha; post-emergent; 14 days after application; read-out: Visual Growth Reduction (%) 14 Days After Application AMARE

SMILES	pest or weed control at 140 g/ha
COc1c(N)nc(-c2cc(F)c(Br)cc2F)nc1C(=O)O [Compound 11]	95 to 100%

Same assay, conditions: post-emergence, 336 h; BRSNN: oilseed-rape, canola (Brassica napus); 70 g ai/ha; post-emergent; 14 days after application; read-out: Visual Growth Reduction (%) 14 Days After Application BRSNN

SMILES	pest or weed control at 70 g/ha
COc1c(N)nc(-c2cc(F)c(Br)cc2F)nc1C(=O)O [Compound 11]	95 to 100%

Same assay, conditions: post-emergence, 336 h; BRSNN: oilseed-rape, canola (Brassica napus); 140 g ai/ha; post-emergent; 14 days after application; read-out: Visual Growth Reduction (%) 14 Days After Application BRSNN

SMILES	pest or weed control at 140 g/ha
COc1c(N)nc(-c2cc(F)c(Br)cc2F)nc1C(=O)O [Compound 11]	95 to 100%

Same assay, conditions: post-emergence, 336 h; CHEAL: lambsquarters (Chenopodium album); 70 g ai/ha; post-emergent; 14 days after application; read-out: Visual Growth Reduction (%) 14 Days After Application CHEAL

SMILES	pest or weed control at 70 g/ha
COc1c(N)nc(-c2cc(F)c(Br)cc2F)nc1C(=O)O [Compound 11]	95 to 100%

Same assay, conditions: post-emergence, 336 h; CHEAL: lambsquarters (Chenopodium album); 140 g ai/ha; post-emergent; 14 days after application; read-out: Visual Growth Reduction (%) 14 Days After Application CHEAL

SMILES	pest or weed control at 140 g/ha
COc1c(N)nc(-c2cc(F)c(Br)cc2F)nc1C(=O)O [Compound 11]	95 to 100%

Same assay, conditions: post-emergence, 336 h; EPHHL: wild poinsettia (Euphorbia heterophylla); 70 g ai/ha; post-emergent; 14 days after application; read-out: Visual Growth Reduction (%) 14 Days After Application EPHHL

SMILES	pest or weed control at 70 g/ha
COc1c(N)nc(-c2cc(F)c(Br)cc2F)nc1C(=O)O [Compound 11]	95 to 100%

Same assay, conditions: post-emergence, 336 h; EPHHL: wild poinsettia (Euphorbia heterophylla); 140 g ai/ha; post-emergent; 14 days after application; read-out: Visual Growth Reduction (%) 14 Days After Application EPHHL

SMILES	pest or weed control at 140 g/ha
COc1c(N)nc(-c2cc(F)c(Br)cc2F)nc1C(=O)O [Compound 11]	95 to 100%

Same assay, conditions: post-emergence, 336 h; HELAN: sunflower (Helianthus annuus); 70 g ai/ha; post-emergent; 14 days after application; read-out: Visual Growth Reduction (%) 14 Days After Application HELAN

SMILES	pest or weed control at 70 g/ha
COc1c(N)nc(-c2cc(F)c(Br)cc2F)nc1C(=O)O [Compound 11]	95 to 100%

Same assay, conditions: post-emergence, 336 h; HELAN: sunflower (Helianthus annuus); 140 g ai/ha; post-emergent; 14 days after application; read-out: Visual Growth Reduction (%) 14 Days After Application HELAN

SMILES	pest or weed control at 140 g/ha
COc1c(N)nc(-c2cc(F)c(Br)cc2F)nc1C(=O)O [Compound 11]	95 to 100%

Same assay, conditions: post-emergence, 336 h; VIOTR: wild pansy (Viola tricolor); 70 g ai/ha; post-emergent; 14 days after application; read-out: Visual Growth Reduction (%) 14 Days After Application VIOTR

SMILES	pest or weed control at 70 g/ha
COc1c(N)nc(-c2cc(F)c(Br)cc2F)nc1C(=O)O [Compound 11]	0 to 29%

Same assay, conditions: post-emergence, 336 h; VIOTR: wild pansy (Viola tricolor); 140 g ai/ha; post-emergent; 14 days after application; read-out: Visual Growth Reduction (%) 14 Days After Application VIOTR

SMILES	pest or weed control at 140 g/ha
COc1c(N)nc(-c2cc(F)c(Br)cc2F)nc1C(=O)O [Compound 11]	45 to 59%

System: not given
Assay: not given
Details: not given

melting point	SMILES
132 to 133 °C	COc1c(N)nc(-c2cc(F)c(Br)cc2F)nc1C(=O)O [Compound 11]

System: Key Grass and Sedge Weeds as well as Grass Crops
Assay: Post-emergent Test II herbicidal activity (Table 6)
Format: in vivo
Details: Triticum aestivum, post-emergence, 336 h, TRZSS (wheat), application rate 70 g ai/ha, read-out: Visual Growth Reduction (%) 14 Days After Application, TRZSS
Method in brief: as §1

SMILES	pest or weed control at 70 g/ha
COc1c(N)nc(-c2cc(F)c(Br)cc2F)nc1C(=O)O [Compound 11]	45 to 59%

Same assay, conditions: Triticum aestivum, post-emergence, 336 h, TRZSS (wheat), application rate 140 g ai/ha, read-out: Visual Growth Reduction (%) 14 Days After Application, TRZSS

SMILES	pest or weed control at 140 g/ha
COc1c(N)nc(-c2cc(F)c(Br)cc2F)nc1C(=O)O [Compound 11]	60 to 74%

Same assay, conditions: post-emergence, 336 h, CYPES: yellow nutsedge (Cyperus esculentus), application rate 70 g ai/ha, read-out: Visual Growth Reduction (%) 14 Days After Application, CYPES

SMILES	pest or weed control at 70 g/ha
COc1c(N)nc(-c2cc(F)c(Br)cc2F)nc1C(=O)O [Compound 11]	45 to 59%

Same assay, conditions: post-emergence, 336 h, CYPES: yellow nutsedge (Cyperus esculentus), application rate 140 g ai/ha, read-out: Visual Growth Reduction (%) 14 Days After Application, CYPES

SMILES	pest or weed control at 140 g/ha
COc1c(N)nc(-c2cc(F)c(Br)cc2F)nc1C(=O)O [Compound 11]	45 to 59%

Same assay, conditions: post-emergence, 336 h, DIGSA: crabgrass (Digitaria sanguinalis), application rate 70 g ai/ha, read-out: Visual Growth Reduction (%) 14 Days After Application, DIGSA

SMILES	pest or weed control at 70 g/ha
COc1c(N)nc(-c2cc(F)c(Br)cc2F)nc1C(=O)O [Compound 11]	60 to 74%

Same assay, conditions: post-emergence, 336 h, DIGSA: crabgrass (Digitaria sanguinalis), application rate 140 g ai/ha, read-out: Visual Growth Reduction (%) 14 Days After Application, DIGSA

SMILES	pest or weed control at 140 g/ha
COc1c(N)nc(-c2cc(F)c(Br)cc2F)nc1C(=O)O [Compound 11]	60 to 74%

Same assay, conditions: post-emergence, 336 h, ECHCG: barnyardgrass (Echinochloa crus-galli), application rate 70 g ai/ha, read-out: Visual Growth Reduction (%) 14 Days After Application, ECHCG

SMILES	pest or weed control at 70 g/ha
COc1c(N)nc(-c2cc(F)c(Br)cc2F)nc1C(=O)O [Compound 11]	85 to 94%

Same assay, conditions: post-emergence, 336 h, ECHCG: barnyardgrass (Echinochloa crus-galli), application rate 140 g ai/ha, read-out: Visual Growth Reduction (%) 14 Days After Application, ECHCG

SMILES	pest or weed control at 140 g/ha
COc1c(N)nc(-c2cc(F)c(Br)cc2F)nc1C(=O)O [Compound 11]	85 to 94%

Same assay, conditions: post-emergence, 336 h, ORYSA: rice (Oryza sativa), application rate 70 g ai/ha, read-out: Visual Growth Reduction (%) 14 Days After Application, ORYSA

SMILES	pest or weed control at 70 g/ha
COc1c(N)nc(-c2cc(F)c(Br)cc2F)nc1C(=O)O [Compound 11]	0 to 29%

Same assay, conditions: post-emergence, 336 h, ORYSA: rice (Oryza sativa), application rate 140 g ai/ha, read-out: Visual Growth Reduction (%) 14 Days After Application, ORYSA

SMILES	pest or weed control at 140 g/ha
COc1c(N)nc(-c2cc(F)c(Br)cc2F)nc1C(=O)O [Compound 11]	0 to 29%

Same assay, conditions: post-emergence, 336 h, SETFA: giant foxtail (Setaria faberi), application rate 70 g ai/ha, read-out: Visual Growth Reduction (%) 14 Days After Application, SETFA

SMILES	pest or weed control at 70 g/ha
COc1c(N)nc(-c2cc(F)c(Br)cc2F)nc1C(=O)O [Compound 11]	60 to 74%

Same assay, conditions: post-emergence, 336 h, SETFA: giant foxtail (Setaria faberi), application rate 140 g ai/ha, read-out: Visual Growth Reduction (%) 14 Days After Application, SETFA

SMILES	pest or weed control at 140 g/ha
COc1c(N)nc(-c2cc(F)c(Br)cc2F)nc1C(=O)O [Compound 11]	60 to 74%

Same assay, conditions: post-emergence, 336 h, SORVU: grain sorghum (Sorghum vulgare), application rate 70 g ai/ha, read-out: Visual Growth Reduction (%) 14 Days After Application, SORVU

SMILES	pest or weed control at 70 g/ha
COc1c(N)nc(-c2cc(F)c(Br)cc2F)nc1C(=O)O [Compound 11]	60 to 74%

Same assay, conditions: post-emergence, 336 h, SORVU: grain sorghum (Sorghum vulgare), application rate 140 g ai/ha, read-out: Visual Growth Reduction (%) 14 Days After Application, SORVU

SMILES	pest or weed control at 140 g/ha
COc1c(N)nc(-c2cc(F)c(Br)cc2F)nc1C(=O)O [Compound 11]	75 to 84%

Same assay, conditions: post-emergence, 336 h, ZEAMX: maize, corn (Zea mays), application rate 70 g ai/ha, read-out: Visual Growth Reduction (%) 14 Days After Application, ZEAMX

SMILES	pest or weed control at 70 g/ha
COc1c(N)nc(-c2cc(F)c(Br)cc2F)nc1C(=O)O [Compound 11]	60 to 74%

Same assay, conditions: post-emergence, 336 h, ZEAMX: maize, corn (Zea mays), application rate 140 g ai/ha, read-out: Visual Growth Reduction (%) 14 Days After Application, ZEAMX

SMILES	pest or weed control at 140 g/ha
COc1c(N)nc(-c2cc(F)c(Br)cc2F)nc1C(=O)O [Compound 11]	60 to 74%
